According to article PMC7252619 (PLoS ONE, 2020):
Where two headings read alike, the source gives them in different places.

Experiments:
[1] = system: Jurkat cells; assay: WST-1 cytotoxicity assay on Jurkat cells (T-cell line); assay type: cell-based, human; details: 48 h; mean of 4 independent measures; read-out: Cytotoxicity, WST-1 Jurkat IC 50 (µM) Mean
[2] = system: RPMI1788 cells; assay: WST-1 cytotoxicity assay on RPMI1788 cells (B-cell line); assay type: cell-based, human; details: 48 h; mean of 4 independent measures; read-out: Cytotoxicity, WST-1 RPMI 1788 IC 50 (µM) Mean
Experimental: (§1) Compounds were prepared as 10 mM stock solutions in dimethylsulfoxide (DMSO)and were tested at 50-10-1-0.1-0.01 and 0.001 μM in the 4 assays.
(§2) The human B cell line RPMI1788 (American Type Culture Collection, USA) and the human T cell line Jurkat (European Collection of Cell Cultures, ECACC, England) were maintained in RPMI1640 culture medium (BioWhittaker®, Lonza, Verviers, Belgium) containing 10% foetal calf serum (FCS, HyClone® Thermo Scientific, United Kingdom) and 5 μg/mL gentamicin sulphate (BioWhittaker®, Lonza, Verviers, Belgium) at 37°C and 5% CO2.
(§3) WST-1 assays on RPMI-1788 cells and Jurkat cells were performed as follows: 20 μL of test compound dilution were added to each well containing exponential growing cells and the plates were incubated for 48 h at 37°C, 5% CO2. Untreated cells and positive control (1% triton X-100, for the last 15 min) served as reference for maximum and minimum viability. At the end of incubation 100 μL of supernatant were removed and replaced by 10 μL of WST-1 solution (Cell Proliferation Reagent WST-1, Roche Applied Science).

[3] = system: human CD19+ B cells; assay: B-cell assay: IgG production of ODN2006-stimulated primary B cells (AlphaLISA); assay type: cell-based
[4] = system: human PBMCs (responder cells) with RPMI1788 stimulator cells; assay: Mixed Lymphocyte Reaction (MLR, T cell assay), 3H-thymidine incorporation; assay type: cell-based; details: for IC50: mean of 4 independent measures, read-out: T-cell efficacy, MLR IC 50 (µM) Mean
[5] = target: T1, MLK4 (Homo sapiens, UniProt Q5TCX8); assay type: biochemical; details: for % Enzyme Activity (relative to DMSO controls), Data 1: replicate Data 1; for % Enzyme Activity (relative to DMSO controls), Data 2: replicate Data 2
T1 construct: purchased ReactionBiology

[6] = WST-1 cytotoxicity assay on Jurkat cells (T-cell line); assay type: cell-based, human; details: human, Jurkat cells (T-cell line), mean of 4 independent measures, read-out: Cytotoxicity, WST-1 Jurkat IC 50 (µM) Mean
[7] = WST-1 cytotoxicity assay on RPMI1788 cells (B-cell line); assay type: cell-based, human; details: human, RPMI1788 cells (B-cell line), mean of 4 independent measures, read-out: Cytotoxicity, WST-1 RPMI 1788 IC 50 (µM) Mean
Experimental: as §1, §2, §3

[8] = target: T2, VEGFR2 (Homo sapiens, UniProt P35968); assay: KINOMEscan competition binding assay, dose response
[9] = target: T2, VEGFR2; assay: Kinase activity test (ReactionBiology), % enzyme activity relative to DMSO; assay type: biochemical; parameters: purchased ReactionBiology; details: VEGFR2;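 further: VEGFR2 was one member of a ten-kinase screening panel testing marketed FDA-approved drugs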

T2 sequence (P35968 20-1356): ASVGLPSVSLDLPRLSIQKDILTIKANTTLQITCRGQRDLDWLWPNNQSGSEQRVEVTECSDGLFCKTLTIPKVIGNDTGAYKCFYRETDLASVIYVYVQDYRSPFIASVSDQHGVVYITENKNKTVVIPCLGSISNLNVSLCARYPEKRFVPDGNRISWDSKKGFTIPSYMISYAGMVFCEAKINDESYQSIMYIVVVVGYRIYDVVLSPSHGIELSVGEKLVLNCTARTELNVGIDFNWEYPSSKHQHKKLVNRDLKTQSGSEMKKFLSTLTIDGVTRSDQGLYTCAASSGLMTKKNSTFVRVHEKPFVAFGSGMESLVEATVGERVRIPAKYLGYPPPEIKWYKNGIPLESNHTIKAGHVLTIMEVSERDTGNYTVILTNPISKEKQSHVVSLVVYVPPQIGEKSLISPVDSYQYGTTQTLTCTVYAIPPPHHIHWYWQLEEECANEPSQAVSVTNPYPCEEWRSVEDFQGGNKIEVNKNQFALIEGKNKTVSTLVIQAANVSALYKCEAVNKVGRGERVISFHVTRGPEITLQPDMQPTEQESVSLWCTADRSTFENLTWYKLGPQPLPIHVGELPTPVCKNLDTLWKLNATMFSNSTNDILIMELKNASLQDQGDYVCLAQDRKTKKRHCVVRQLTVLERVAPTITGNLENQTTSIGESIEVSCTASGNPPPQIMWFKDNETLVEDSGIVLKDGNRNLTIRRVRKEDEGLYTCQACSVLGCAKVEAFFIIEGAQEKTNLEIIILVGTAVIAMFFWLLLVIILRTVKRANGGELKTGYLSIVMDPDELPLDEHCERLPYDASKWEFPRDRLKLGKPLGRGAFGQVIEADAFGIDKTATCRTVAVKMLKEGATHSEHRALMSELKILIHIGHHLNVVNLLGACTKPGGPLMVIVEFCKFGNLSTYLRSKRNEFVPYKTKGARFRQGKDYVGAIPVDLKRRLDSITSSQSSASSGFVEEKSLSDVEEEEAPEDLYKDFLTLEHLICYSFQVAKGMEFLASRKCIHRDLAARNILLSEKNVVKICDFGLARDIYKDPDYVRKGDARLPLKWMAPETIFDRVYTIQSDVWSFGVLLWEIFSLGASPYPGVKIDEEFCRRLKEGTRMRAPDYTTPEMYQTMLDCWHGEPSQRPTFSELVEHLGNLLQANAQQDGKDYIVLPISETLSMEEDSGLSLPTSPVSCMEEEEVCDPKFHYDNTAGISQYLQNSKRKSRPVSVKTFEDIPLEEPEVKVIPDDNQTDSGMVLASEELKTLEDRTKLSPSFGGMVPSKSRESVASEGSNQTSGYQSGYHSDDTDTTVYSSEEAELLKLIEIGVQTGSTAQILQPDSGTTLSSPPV
T1 sequence (Q5TCX8 whole entry): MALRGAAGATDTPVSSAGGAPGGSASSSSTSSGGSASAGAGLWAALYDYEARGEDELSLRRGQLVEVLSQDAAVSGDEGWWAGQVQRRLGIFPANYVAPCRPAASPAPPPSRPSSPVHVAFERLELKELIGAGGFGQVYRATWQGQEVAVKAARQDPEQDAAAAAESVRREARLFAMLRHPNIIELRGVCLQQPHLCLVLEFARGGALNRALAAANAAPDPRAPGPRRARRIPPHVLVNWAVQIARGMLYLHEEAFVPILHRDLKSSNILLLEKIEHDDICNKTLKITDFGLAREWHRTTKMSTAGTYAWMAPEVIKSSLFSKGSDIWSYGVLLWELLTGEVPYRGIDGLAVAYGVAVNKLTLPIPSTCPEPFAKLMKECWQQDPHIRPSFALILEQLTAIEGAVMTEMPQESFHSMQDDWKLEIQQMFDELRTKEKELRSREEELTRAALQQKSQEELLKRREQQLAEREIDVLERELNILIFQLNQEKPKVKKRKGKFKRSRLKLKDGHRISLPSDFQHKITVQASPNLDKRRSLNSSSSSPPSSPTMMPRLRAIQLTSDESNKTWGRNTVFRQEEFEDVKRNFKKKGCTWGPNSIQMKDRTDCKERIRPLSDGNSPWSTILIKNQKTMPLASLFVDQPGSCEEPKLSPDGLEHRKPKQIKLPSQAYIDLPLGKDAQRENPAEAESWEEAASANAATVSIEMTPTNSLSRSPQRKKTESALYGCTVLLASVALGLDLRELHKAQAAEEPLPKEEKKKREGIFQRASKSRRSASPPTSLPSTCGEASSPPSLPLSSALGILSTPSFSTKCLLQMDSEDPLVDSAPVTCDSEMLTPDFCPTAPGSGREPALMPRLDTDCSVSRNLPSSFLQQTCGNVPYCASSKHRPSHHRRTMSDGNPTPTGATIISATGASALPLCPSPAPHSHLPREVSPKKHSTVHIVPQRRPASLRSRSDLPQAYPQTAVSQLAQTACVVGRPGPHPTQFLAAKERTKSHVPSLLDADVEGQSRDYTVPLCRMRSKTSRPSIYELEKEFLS

For COc1c(C)c2c(c(O)c1C/C=C(\C)CCC(=O)OCCN1CCOCC1)C(=O)OC2 [Mycophenolate Mofetyl], the IC50 [1] was 0.552 µM, the IC50 [2] was 0.487 µM and the IC50 ([3]; mean of 4 independent measures, read-out: B-cell efficacy, B cell IC 50 (µM) Mean) was 0.723 µM. The IC50 [4] was 0.121 µM.

With NCCC(O)(P(=O)(O)O)P(=O)(O)O [Pamidronate] the “% Enzyme Activity (relative to DMSO controls), Average” value ([5]; 1 uM) was 79.13%, the “% Enzyme Activity (relative to DMSO controls), Data 1” value ([5]; 1 uM) was 76.76% and the “% Enzyme Activity (relative to DMSO controls), Data 2” value ([5]; 1 uM) was 81.5%. The “% Enzyme Activity (relative to DMSO controls), Average” value ([5]; 10 uM) was 78.77%, the “% Enzyme Activity (relative to DMSO controls), Data 1” value ([5]; 10 uM) was 82.48% and the “% Enzyme Activity (relative to DMSO controls), Data 2” value ([5]; 10 uM) was 75.06%.

In the case of Cc1ccc(C(=O)Nc2ccc(S(=O)(=O)O)c3cc(S(=O)(=O)O)cc(S(=O)(=O)O)c23)cc1NC(=O)c1cccc(NC(=O)Nc2cccc(C(=O)Nc3cc(C(=O)Nc4ccc(S(=O)(=O)O)c5cc(S(=O)(=O)O)cc(S(=O)(=O)O)c45)ccc3C)c2)c1 [Suramin, reference compound], the IC50 at 48 h [6] is reported as over 50 µM, the IC50 at 48 h [7] is reported as over 50 µM and the Kd [8] is reported as 25 µM. The IC50 ([3]; Homo sapiens, B-cell, 168 h, IgG production, ODN2006 0.1 μM, 7 days, mean of 4 independent experiments, read-out: B-cell IC50) was 35.2 µM, the IC50 ([4]; Homo sapiens, RPMI-1788) was 29.8 µM and the “Selectivity Index (SI) MLR/B-cell” value ([4]; ratio of IC50 values) was 0.85. For the same molecule, the remaining activity at 1 µM ([9]; 1 uM, Average, read-out: % Enzyme Activity (relative to DMSO controls), Average) was 72.7%, the remaining activity at 1 µM ([9]; 1 uM, replicate Data 1, read-out: % Enzyme Activity (relative to DMSO controls), Data 1) was 73.6% and the remaining activity at 1 µM ([9]; 1 uM, replicate Data 2, read-out: % Enzyme Activity (relative to DMSO controls), Data 2) was 71.8%. For the same molecule, the remaining activity at 10 µM ([9]; 10 uM, Average, read-out: % Enzyme Activity (relative to DMSO controls), Average) was 6.48%, the remaining activity at 10 µM ([9]; 10 uM, replicate Data 1, read-out: % Enzyme Activity (relative to DMSO controls), Data 1) was 7.02% and the remaining activity at 10 µM ([9]; 10 uM, replicate Data 2, read-out: % Enzyme Activity (relative to DMSO controls), Data 2) was 5.94%. The remaining activity at 1 µM ([9]; compound 1μM, relative to DMSO controls, read-out: % Enzyme activity at 1μM) was 72.7% and the remaining activity at 10 µM ([9]; compound 10μM, relative to DMSO controls, read-out: % Enzyme activity at 10μM) was 6.48%.
